Data as given in PMC8910920 (International Journal of Molecular Sciences, 2022).
Like-named read-outs stand apart in the source and are kept apart here. Blank lines part the entries; values can stand above or below the compound they belong to.

Columns and labels:
[1] = tested on: serum proteins; experiment: Protein binding; type: in vitro ADME, human
[2] = tested on: CACO-2 cell monolayers; experiment: Caco-2 permeability; type: in vitro ADME; conditions: CACO-2 cell monolayer
Procedure: These studies were subcontracted to Eurofins-CEREP or Eurofins-PANLABS. Briefly, agonists and antagonist assays were performed in cell cultures overexpressing the corresponding channel (CHO: TRPV1 and TRPA1; HEK293: TRPV3 and ASIC3). In vitro pharmacology, cellular channel functional assays: the compound was prepared in assay buffer to the final concentration, 10 μM. The compound wells, reference agonist and background vehicle controls were prepared in DMSO at 0.3%. The reference agonist for each Ion Channel assayed was prepared in a similar manner to serve as the assay control. The reference agonist for each Ion Channel was included at Emax (the concentration where the reference agonist elicited a maximal response). The agonist assay was conducted on fluorimeter instruments where the test compound, vehicle controls, and reference agonist were added to the assay plate after a fluorescence baseline was established. The agonist assay was used to assess each compound’s ability to activate each Ion Channel assayed. For the antagonist assay, the compound was pre-incubated for five minutes at room temperature, and then challenged with the EC80 concentration of the reference agonist after establishment of a fluorescence baseline. Vehicle controls and EC80 concentration of reference agonist were added to appropriate wells. The antagonist assay was used to assess each compound’s ability to inhibit activation by the corresponding Ion Channel agonist. ASIC3 ionflux antagonist assay: all recordings were obtained from a holding potential of -60 mV. The compound addition sequence was as follows: one addition of pH5.5 buffer was added to establish the baseline response, the test concentration of compound was applied for 30 s, followed by the addition of pH5.5 of compound for 2 s. Binding assays were performed in CHO cell cultures overexpressing human CGRPR, CB2 and M2 receptors. RGM8-51 (10 μM) was tested, and reference compounds used as control agonists and antagonists are detailed in Table 2, footnote. Binding assay results are expressed as a percent of control specific binding. […] Aqueous solubility (μM) was determined by comparing the peak area of the principal peak in a calibration standard (200 μM) containing organic solvent (methanol/water, 60/40, v/v) with the peak area of the corresponding peak in a buffer sample. Partition coefficient: the total amount of compound was determined as the peak area of the principal peak in a calibration standard (100 μM) containing organic solvent (methanol/water, 60/40, v/v). The amount of compound in buffer was determined as the combined, volume-corrected, and weighted areas of the corresponding peaks in the aqueous phases of three organic-aqueous samples of different composition. An automated weighting system was used to ensure the preferred use of raw data from those samples with well quantifiable peak signals. The amount of compound in organic phase was calculated by subtraction. Subsequently, Log D was calculated as the Log10 of the amount of compound in the organic phase divided by the amount of compound in the aqueous phase. […] Permeability was measured in CACO-2 monolayers. Percentage of compounds in the receptors wells was measured using HPLC. […] In vitro metabolism was measured in human liver microsomes. […] The apparent intrinsic clearance (CLint, in μL/min/mg) was calculated from the half-life time.

[3] = biological target: T1, rTRPM8 (Rattus norvegicus, UniProt Q8R455); design: method as in PMID 32843690; conditions: reference antagonist value; ref [31]; read-out: rTRPM8 IC50, Ca2+ microfluorography; cited from earlier work
T1 construct: expressed in transfected cells
T1 sequence (Q8R455 whole entry): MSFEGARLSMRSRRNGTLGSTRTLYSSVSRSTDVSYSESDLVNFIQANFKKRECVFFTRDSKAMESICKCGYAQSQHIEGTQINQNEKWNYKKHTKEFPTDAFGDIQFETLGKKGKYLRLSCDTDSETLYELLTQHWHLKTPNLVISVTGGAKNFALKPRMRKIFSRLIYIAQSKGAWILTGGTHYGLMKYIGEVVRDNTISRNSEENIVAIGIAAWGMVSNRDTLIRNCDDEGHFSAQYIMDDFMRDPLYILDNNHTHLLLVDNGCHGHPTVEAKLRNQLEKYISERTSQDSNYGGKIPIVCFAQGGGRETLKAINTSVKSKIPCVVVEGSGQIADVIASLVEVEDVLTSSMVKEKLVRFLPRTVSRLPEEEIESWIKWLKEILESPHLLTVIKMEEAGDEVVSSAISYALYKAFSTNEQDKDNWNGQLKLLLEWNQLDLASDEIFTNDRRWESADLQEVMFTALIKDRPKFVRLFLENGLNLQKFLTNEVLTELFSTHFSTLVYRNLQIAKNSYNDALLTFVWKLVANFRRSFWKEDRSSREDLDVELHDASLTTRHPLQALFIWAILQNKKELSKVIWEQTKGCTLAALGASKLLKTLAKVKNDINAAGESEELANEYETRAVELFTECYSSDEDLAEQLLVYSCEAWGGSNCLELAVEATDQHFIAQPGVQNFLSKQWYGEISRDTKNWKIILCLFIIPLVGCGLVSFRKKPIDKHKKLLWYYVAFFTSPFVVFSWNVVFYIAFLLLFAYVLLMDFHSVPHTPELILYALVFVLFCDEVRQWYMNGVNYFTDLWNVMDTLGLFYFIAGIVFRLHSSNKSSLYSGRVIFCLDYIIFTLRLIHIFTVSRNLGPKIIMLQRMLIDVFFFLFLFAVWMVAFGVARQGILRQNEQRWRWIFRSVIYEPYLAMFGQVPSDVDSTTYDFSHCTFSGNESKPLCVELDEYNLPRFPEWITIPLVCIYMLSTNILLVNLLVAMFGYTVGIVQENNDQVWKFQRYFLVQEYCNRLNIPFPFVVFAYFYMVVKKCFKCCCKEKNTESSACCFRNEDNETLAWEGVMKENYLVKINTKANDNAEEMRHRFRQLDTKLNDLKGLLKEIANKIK

[4] = biological target: T1, rTRPM8; experiment: Ca2+ microfluorography assay, HEK293 cells expressing rTRPM8, menthol activation; type: cell-based; conditions: HEK293-rTRPM8, 100 μM menthol
Procedure: This represents a similar activity as β–lactam 2 and a somewhat higher potency than the model TRPM8 antagonists AMTB.
To measure the effect of the compounds against TRPM8 activity we used microfluorometry-based calcium flux assays with Fluo-4 NW Ca^2+ dye and fluorescence as described in [30]. Briefly, human embryonic kidney cell line (HEK293) cells stably transfected with rTRPM8 or hTRPM8 were seeded in 96-well plates at a cell density of 30,000 cells. After 2 days the medium was replaced with 100 μL of the dye, Fluo-4 NW, loading solution supplemented with probenecid 2.5 mM and incubated 1 h at 37 °C. The TRPM8 activity was measured using POLASTAR plate reader (BMG Labtech) setting the excitation wavelength at 485 nm and the emission wavelength at 520 nm. The baseline fluorescence was recorded for 3 cycles before the addition of vehicle compound at different concentrations and the antagonist, 10 μM AMTB. Fluorescence intensity was recorded during 7 more cycles and 100 μM menthol was added. Fluorescence intensity was recorded during 10 more cycles.
Data analysis: The Z-factor was calculated in each assay using the following equation: […]. In all the experiments, the Z-factor was ≥0.5. The effect of the compounds against TRPM8 activity was determined by normalizing their effect on the maximum fluorescence observed after application of 100 μM menthol. Decrease in menthol signal was expressed as percentage of inhibition (%). All data are expressed as the mean ± standard deviation (SD). Data are expressed as the concentration exerting a half-maximal inhibition of agonist-induced [Ca^2+]i elevation (IC50), which was calculated again using GraphPad Prism® software. All determinations were performed in triplicate (n = 3) in 3 independent experiments (N = 3).

[5] = biological target: T1, rTRPM8; experiment: Whole-cell patch-clamp, HEK293-rTRPM8 cells; type: cell-based; conditions: HEK293-rTRPM8, 100 μM menthol, holding voltage −60 mV
Procedure: To confirm the antagonistic activity, electrophysiology (patch-clamp) studies were performed on HEK293 cells expressing the rTRPM8 channel. […] Then, using a holding voltage of −60 mV, different concentrations of RGM8-51 were used to establish the concentration/response curve for rTRPM8 current blockade.
Whole-cell patch-clamp recordings from HEK293-rTRPM8 cells were carried out 2 days after seeding on 12 mm Ø glass coverslips treated with poly-L-lysine solution (Sigma Aldrich, Spain); the intracellular pipette solution contained (in mM) 150 NaCl, 5 EGTA, 3 MgCl2 and 10 HEPES, adjusted to pH 7.2 with NaOH, and the extracellular solution contained (in mM) 150 NaCl, 6 CsCl, 1.5 CaCl2, 1 MgCl2, 10 D-glucose and 10 HEPES, adjusted to pH 7.4 with NaOH. The TRPM8 activity was measured by the application of two pulses of 100 μM menthol in a time interval of 2 min and a 30 s perfusion of the different compound concentrations before the second menthol pulse.
Data were sampled at 10 kHz (EPC10 amplifier with PatchMaster 2.53 software, HEKA Electronics, Lambrecht, Germany) and low-pass filtered at 3 kHz for analysis (PatchMaster 2.53 and GraphPad Prism 6.0, Graphpad Software, San Diego, CA, USA). The series resistance was <10 MΩ and to minimize voltage errors was compensated by 60–80%. […] Cell capacitance was measured and used to estimate the current density (J, pA/pF).
Data analysis: For the whole-cell patch-clamp experiments, results are expressed as the percentage of remaining activation of the TRPM8 channel. This is calculated by normalizing the ratio (p2/p1) of testing conditions to the ratio (p2/p1) of the control condition. […] All data are expressed as the mean ± standard error of the mean (SEM) (n = 5–8). In the current-clamp experiments, the change in membrane potential is expressed as the difference between the resting membrane potential and the membrane potential after the addition of a stimuli. Data were analyzed as previously described (GraphPad 6.0, one-way ANOVA followed by Bonferroni multiple comparisons test, and ROUT method, Q = 10%).

[6] = tested on: OXA-induced cold hypersensitivity in male mice; design: method as in PMID 32843690; conditions: ref [31]; cited from earlier work

Binding to proteins (%) [1]: 99%
Structure (SMILES): CC(=O)CC(c1ccccc1)c1c(O)c2ccccc2oc1=O (stereo not shown) [Warfarin, reference compound]

Permeability B-A (%) [2]: 74%
Permeability A-B (%) ([2]; percentage of compound in the acceptor cell): 70%
Structure (SMILES): CC(C)NCC(O)COc1cccc2ccccc12 (stereo not shown) [Propanolol, reference compound]

Structure (SMILES): Cc1cccc(COc2ccccc2C(=O)N(CCCN)Cc2cccs2)c1 [AMTB]
IC50 [3]: 7.3 ± 1.5 µM

IC50 [4]: 3.1 ± 1.1 µM
IC50 [5]: 0.9 ± 1 µM
Structure (SMILES): C[C@@H]1C(=O)N(C[C@H](Cc2ccccc2)NC(=O)OCc2ccccc2)[C@]1(Cc1ccccc1)C(=O)OCc1ccccc1 [Compound 2, reference compound]
relief of oxaliplatin-induced cold hypersensitivity [6]: significant activity
